Experimental data: ChEMBL document CHEMBL1201862, “PubChem BioAssay data set” (2004)
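The compound was tested at five concentrations on cells cultured in 96-well plates, with a 48-hour exposure period. GI50: concentration for 50% inhibition of growth.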 Calls of active or inactive are those of the source. Cut-off read from the data, not from the text of the source: active = GI50 up to about 1.1 µM and inactive = higher.

Experiments:
Test in all cases: NCI tumour cell line growth inhibition, 48 h
SNB-19 = system: SNB-19
UO-31 = system: UO-31
OVCAR-8 = system: OVCAR-8
786-0 = system: 786-0
U-251 = system: U-251
SW-620 = system: SW-620
COLO 205 = system: COLO 205
BT-549 = system: BT-549
T47D = system: T47D
UACC-62 = system: UACC-62
IGROV-1 = system: IGROV-1
SK-OV-3 = system: SK-OV-3
SN12C = system: SN12C
OVCAR-5 = system: OVCAR-5
MCF7 = system: MCF7
Malme-3M = system: Malme-3M
RXF 393 = system: RXF 393
HT-29 = system: HT-29
HCC 2998 = system: HCC 2998

Measured: GI50

C=CC[C@@H](N)C(=O)N(C)[C@@H](C)[C@@H](O)c1ccccc1
inactive: SNB-19 > 100 µM | UO-31 > 100 µM | OVCAR-8 > 100 µM | 786-0 > 100 µM | U-251 > 100 µM | SW-620 > 100 µM | COLO 205 > 100 µM | BT-549 > 100 µM | T47D > 100 µM | UACC-62 > 100 µM | IGROV-1 82.8 µM | SK-OV-3 > 100 µM

O=C1N/C(=N/N=C/c2c[nH]c3ccccc23)N/C1=C\c1cccs1
inactive: SNB-19 14.8 µM | UO-31 > 100 µM | OVCAR-8 > 100 µM | SN12C > 100 µM | 786-0 > 100 µM | U-251 36.2 µM | SW-620 > 100 µM | COLO 205 > 100 µM | OVCAR-5 > 100 µM | MCF7 41.4 µM | Malme-3M 61.8 µM | BT-549 > 100 µM | RXF 393 75.3 µM | T47D > 100 µM | UACC-62 73.3 µM | HT-29 52.2 µM | IGROV-1 > 100 µM | SK-OV-3 38.6 µM

Cc1ccc(S(=O)(=O)c2ccsc2NC(=O)c2ccccc2)cc1
inactive: SNB-19 > 64.3 µM | UO-31 > 49.3 µM | OVCAR-8 28.6 µM | SN12C > 100 µM | 786-0 23 µM | U-251 49.3 µM | SW-620 > 100 µM | COLO 205 > 100 µM | HCC 2998 > 100 µM | OVCAR-5 > 100 µM | MCF7 > 26.7 µM | Malme-3M > 100 µM | BT-549 > 100 µM | T47D > 100 µM | UACC-62 > 100 µM | IGROV-1 > 43.3 µM | SK-OV-3 46.9 µM

COC(=O)c1ccccc1/C=C1\Cc2cc3c(cc2C1=O)CCC3
inactive: SNB-19 > 100 µM | UO-31 > 100 µM | OVCAR-8 > 100 µM | SN12C > 100 µM | 786-0 38.4 µM | U-251 43 µM | SW-620 > 100 µM | COLO 205 > 100 µM | HCC 2998 > 100 µM | OVCAR-5 > 100 µM | MCF7 40.6 µM | Malme-3M > 100 µM | BT-549 > 100 µM | T47D > 100 µM | UACC-62 32.1 µM | HT-29 > 100 µM | IGROV-1 > 100 µM | SK-OV-3 > 100 µM

CC[C@]12C=CCN3CC[C@@]4(c5cc(Br)c(OC)cc5N(C)[C@H]4[C@@](O)(C(=O)NC(Cc4c[nH]c5ccccc45)C(=O)OC)[C@@H]1O)[C@@H]32 (some centres undefined)
inactive: SNB-19 33.2 µM | UO-31 20.8 µM | OVCAR-8 6.59 µM | SN12C 29.4 µM | 786-0 45.5 µM | U-251 5.04 µM | SW-620 89.7 µM | COLO 205 3.46 µM | OVCAR-5 71.4 µM | MCF7 12.3 µM | Malme-3M 11.6 µM | BT-549 7.94 µM | RXF 393 19.1 µM | T47D 5.2 µM | UACC-62 24.3 µM | HT-29 7.89 µM | IGROV-1 19.4 µM | SK-OV-3 > 100 µM

Cn1c2ccccc2c2c3c(c4c5ccccc5n(C)c4c21)C(=O)N(c1ccccc1)C3=O
inactive: SNB-19 > 100 µM | UO-31 > 100 µM | OVCAR-8 > 100 µM | SN12C > 100 µM | 786-0 > 100 µM | U-251 > 100 µM | SW-620 > 100 µM | COLO 205 > 100 µM | HCC 2998 > 100 µM | OVCAR-5 > 100 µM | MCF7 > 100 µM | Malme-3M > 100 µM | BT-549 > 100 µM | T47D > 100 µM | UACC-62 > 100 µM | HT-29 > 100 µM | IGROV-1 98.6 µM | SK-OV-3 > 100 µM

CCC(C(=O)c1cccs1)C(O)(C(F)(F)F)C(F)(F)F (centres undefined)
inactive: SNB-19 > 100 µM | UO-31 > 100 µM | OVCAR-8 > 100 µM | SN12C > 100 µM | 786-0 > 100 µM | U-251 > 100 µM | SW-620 > 100 µM | COLO 205 > 100 µM | OVCAR-5 > 100 µM | MCF7 > 100 µM | Malme-3M > 100 µM | BT-549 > 100 µM | RXF 393 > 100 µM | T47D > 100 µM | UACC-62 > 100 µM | HT-29 > 100 µM | IGROV-1 > 100 µM | SK-OV-3 > 100 µM

CC1(C)OC(=O)C(C)(C)C(=O)O1
inactive: SNB-19 > 100 µM | UO-31 > 100 µM | OVCAR-8 > 100 µM | SN12C > 100 µM | 786-0 > 100 µM | U-251 > 100 µM | SW-620 > 100 µM | COLO 205 > 100 µM | HCC 2998 > 100 µM | OVCAR-5 > 100 µM | MCF7 > 100 µM | Malme-3M > 100 µM | BT-549 > 100 µM | T47D > 100 µM | UACC-62 > 100 µM | HT-29 > 100 µM | IGROV-1 > 100 µM | SK-OV-3 > 100 µM

COC1=CC(=O)N(C)C(O)C1(C#N)OC1OC(CO)C(O)C(O)C1O (centres undefined)
inactive: SNB-19 > 100 µM | UO-31 > 100 µM | OVCAR-8 > 100 µM | SN12C > 100 µM | 786-0 > 100 µM | U-251 > 100 µM | SW-620 > 100 µM | COLO 205 > 100 µM | HCC 2998 > 100 µM | OVCAR-5 > 100 µM | MCF7 > 100 µM | BT-549 > 100 µM | T47D > 100 µM | UACC-62 > 100 µM | HT-29 > 10 µM | IGROV-1 > 100 µM | SK-OV-3 > 100 µM

O=C1c2c(O)cc(O)cc2C(C2OC(CO)C(O)C(O)C2O)c2cc(CO)cc(O)c21 (centres undefined)
inactive: SNB-19 > 100 µM | UO-31 > 100 µM | OVCAR-8 > 100 µM | SN12C > 100 µM | 786-0 > 100 µM | U-251 > 100 µM | SW-620 > 100 µM | COLO 205 > 100 µM | HCC 2998 > 100 µM | OVCAR-5 > 100 µM | MCF7 > 100 µM | Malme-3M 55.7 µM | BT-549 > 100 µM | T47D > 100 µM | UACC-62 > 100 µM | HT-29 > 100 µM | IGROV-1 > 100 µM | SK-OV-3 > 100 µM

CC(C)(OCc1ccccc1)c1ccccc1P(c1ccccc1)c1ccccc1
inactive: SNB-19 69 µM | UO-31 87.7 µM | OVCAR-8 39.9 µM | SN12C 46 µM | 786-0 66.4 µM | U-251 27.9 µM | SW-620 82.2 µM | COLO 205 27 µM | OVCAR-5 > 100 µM | MCF7 40.4 µM | Malme-3M 26.2 µM | BT-549 28.8 µM | RXF 393 > 100 µM | T47D 28.4 µM | UACC-62 47.5 µM | HT-29 30.1 µM | IGROV-1 50.1 µM | SK-OV-3 > 100 µM

Cn1c(C(C#N)c2nc(Cl)ncc2Br)nc2ccccc21 (centres undefined)
inactive: SNB-19 > 100 µM | UO-31 > 100 µM | OVCAR-8 > 100 µM | SN12C > 100 µM | 786-0 > 100 µM | U-251 > 100 µM | SW-620 > 100 µM | COLO 205 > 100 µM | OVCAR-5 > 100 µM | Malme-3M > 100 µM | BT-549 > 100 µM | RXF 393 > 100 µM | T47D > 100 µM | HT-29 > 100 µM | IGROV-1 > 100 µM | SK-OV-3 > 100 µM

O=[N+]([O-])c1ccc(CSc2nn(Cc3ccc([N+](=O)[O-])cc3)cc3ncnc2-3)cc1
inactive: UO-31 12.1 µM | OVCAR-8 33.2 µM | SN12C 57.4 µM | 786-0 47.5 µM | U-251 > 10 µM | SW-620 21.7 µM | COLO 205 39.5 µM | HCC 2998 35.6 µM | OVCAR-5 > 100 µM | MCF7 27.9 µM | Malme-3M 27.4 µM | BT-549 21 µM | T47D 44.6 µM | UACC-62 17.5 µM | HT-29 29.6 µM | IGROV-1 20.4 µM | SK-OV-3 > 100 µM

C[C@H]1CN[C@@H]2[C@@H](C)[C@H]3[C@@H](C[C@H]4[C@@H]5CC[C@H]6C[C@@H](N)CC[C@]6(C)[C@H]5CC[C@]34C)O[C@@]2(O)C1
inactive: SNB-19 2.07 µM | UO-31 2.25 µM | OVCAR-8 2.04 µM | SN12C 1.42 µM | 786-0 1.69 µM | U-251 1.67 µM | SW-620 2.25 µM | COLO 205 1.51 µM | HCC 2998 1.8 µM | OVCAR-5 5.47 µM | MCF7 4.18 µM | Malme-3M 1.64 µM | BT-549 2.19 µM | T47D 2.23 µM | UACC-62 1.95 µM | HT-29 1.19 µM | IGROV-1 2.15 µM | SK-OV-3 6.67 µM

CSc1ncc2c(n1)sc1c(=O)n(-c3ccccc3)cnc12
inactive: SNB-19 > 100 µM | UO-31 > 100 µM | OVCAR-8 > 100 µM | SN12C > 100 µM | 786-0 > 100 µM | U-251 > 100 µM | SW-620 > 100 µM | COLO 205 > 100 µM | HCC 2998 > 100 µM | OVCAR-5 > 100 µM | Malme-3M > 100 µM | BT-549 > 100 µM | RXF 393 > 100 µM | T47D > 100 µM | UACC-62 > 100 µM | HT-29 > 100 µM | IGROV-1 > 100 µM | SK-OV-3 > 100 µM
